Results reported in PubChem BioAssay AID1259407 (Chemical Carcinogenesis Research Information System (CCRIS), 2018).
Activity calls are given as the source filed them. The rule behind the calls is not given here.

Tested on: CCRIS mutagenicity, Ames/micronucleus/aberration tests
Test: CCRIS mutagenicity studies
[1] = Test System: AMES SALMONELLA TYPHIMURIUM, Strain/Indicator: TA98, Metabolic Activation: NONE, Method: STANDARD PLATE
[2] = Test System: AMES SALMONELLA TYPHIMURIUM, Strain/Indicator: TA100, Metabolic Activation: NONE, Method: STANDARD PLATE
[3] = Test System: AMES SALMONELLA TYPHIMURIUM, Strain/Indicator: TA97, Metabolic Activation: NONE, Method: PREINCUBATION
[4] = Test System: AMES SALMONELLA TYPHIMURIUM, Strain/Indicator: TA98, Metabolic Activation: NONE, Method: PREINCUBATION
[5] = Test System: AMES SALMONELLA TYPHIMURIUM, Strain/Indicator: TA100, Metabolic Activation: NONE, Method: PREINCUBATION
[6] = Test System: AMES SALMONELLA TYPHIMURIUM, Strain/Indicator: TA1535, Metabolic Activation: HAMSTER, LIVER, S-9, AROCLOR 1254 (10 OR 30%), Method: PREINCUBATION
[7] = Test System: AMES SALMONELLA TYPHIMURIUM, Strain/Indicator: TA1535, Metabolic Activation: NONE, Method: PREINCUBATION
[8] = Test System: AMES SALMONELLA TYPHIMURIUM, Strain/Indicator: TA1535, Metabolic Activation: RAT, LIVER, S-9, AROCLOR 1254 (10 OR 30%), Method: PREINCUBATION

Measured: mutagenic call

O=C(Nc1ccccc1F)c1csc([N+](=O)[O-])c1
active: [1] active; positive | [2] active; positive

CC(C)(Oc1ccc(C2CCCc3ccccc32)cc1)C(=O)O (centres undefined)
inactive: Test System: AMES SALMONELLA TYPHIMURIUM, Strain/Indicator: TA98, Metabolic Activation: NONE inactive; negative | Test System: AMES SALMONELLA TYPHIMURIUM, Strain/Indicator: TA98, Metabolic Activation: RAT, LIVER, S-9, AROCLOR 1254 inactive; negative | Test System: AMES SALMONELLA TYPHIMURIUM, Strain/Indicator: TA102, Metabolic Activation: NONE inactive; negative | Test System: AMES SALMONELLA TYPHIMURIUM, Strain/Indicator: TA102, Metabolic Activation: RAT, LIVER, S-9, AROCLOR 1254 inactive; negative | Test System: AMES SALMONELLA TYPHIMURIUM, Strain/Indicator: TA104, Metabolic Activation: NONE inactive; negative | Test System: AMES SALMONELLA TYPHIMURIUM, Strain/Indicator: TA104, Metabolic Activation: RAT, LIVER, S-9, AROCLOR 1254 inactive; negative | Test System: UDS RAT HEPATOCYTES, Strain/Indicator: THY INCORP, Metabolic Activation: NONE, Method: LIQUID SCINTILLATION COUNTING inactive; negative

CCOC(=O)CN=[N+]=[N-]
active: Test System: AMES SALMONELLA TYPHIMURIUM, Strain/Indicator: TA1530, Metabolic Activation: NONE, Method: STANDARD PLATE active; positive

C1COC1
active: [6] active; positive | [8] active; positive
inactive: Test System: AMES SALMONELLA TYPHIMURIUM, Strain/Indicator: TA97, Metabolic Activation: HAMSTER, LIVER, S-9, AROCLOR 1254 (30%), Method: PREINCUBATION inactive; negative | [3] inactive; negative | Test System: AMES SALMONELLA TYPHIMURIUM, Strain/Indicator: TA97, Metabolic Activation: RAT, LIVER, S-9, AROCLOR 1254 (30%), Method: PREINCUBATION inactive; negative | Test System: AMES SALMONELLA TYPHIMURIUM, Strain/Indicator: TA98, Metabolic Activation: HAMSTER, LIVER, S-9, AROCLOR 1254 (30%), Method: PREINCUBATION inactive; negative | [4] inactive; negative | Test System: AMES SALMONELLA TYPHIMURIUM, Strain/Indicator: TA98, Metabolic Activation: RAT, LIVER, S-9, AROCLOR 1254 (30%), Method: PREINCUBATION inactive; negative | Test System: AMES SALMONELLA TYPHIMURIUM, Strain/Indicator: TA100, Metabolic Activation: HAMSTER, LIVER, S-9, AROCLOR 1254 (30%), Method: PREINCUBATION inactive; negative | [5] inactive; negative | Test System: AMES SALMONELLA TYPHIMURIUM, Strain/Indicator: TA100, Metabolic Activation: RAT, LIVER, S-9, AROCLOR 1254 (30%), Method: PREINCUBATION inactive; negative | [7] inactive; negative | Test System: AMES SALMONELLA TYPHIMURIUM, Strain/Indicator: TA1537, Metabolic Activation: HAMSTER, LIVER, S-9, AROCLOR 1254 (30%), Method: PREINCUBATION inactive; negative | Test System: AMES SALMONELLA TYPHIMURIUM, Strain/Indicator: TA1537, Metabolic Activation: NONE, Method: PREINCUBATION inactive; negative | Test System: AMES SALMONELLA TYPHIMURIUM, Strain/Indicator: TA1537, Metabolic Activation: RAT, LIVER, S-9, AROCLOR 1254 (30%), Method: PREINCUBATION inactive; negative

N#CC(Cl)Br (centres undefined)
inactive: [1] inactive; negative | Test System: AMES SALMONELLA TYPHIMURIUM, Strain/Indicator: TA98, Metabolic Activation: RAT, LIVER, S-9, AROCLOR 1254, Method: STANDARD PLATE inactive; negative | [2] inactive; negative | Test System: AMES SALMONELLA TYPHIMURIUM, Strain/Indicator: TA100, Metabolic Activation: RAT, LIVER, S-9, AROCLOR 1254, Method: FLUCTUATION TEST inactive; negative
active: Test System: AMES SALMONELLA TYPHIMURIUM, Strain/Indicator: TA100, Metabolic Activation: NONE, Method: FLUCTUATION TEST active; positive | Test System: AMES SALMONELLA TYPHIMURIUM, Strain/Indicator: TA100, Metabolic Activation: RAT, LIVER, S-9, AROCLOR 1254, Method: STANDARD PLATE active; positive | Test System: AMES SALMONELLA TYPHIMURIUM, Strain/Indicator: TA1535, Metabolic Activation: NONE, Method: STANDARD PLATE active; positive | Test System: AMES SALMONELLA TYPHIMURIUM, Strain/Indicator: TA1535, Metabolic Activation: RAT, LIVER, S-9, AROCLOR 1254, Method: STANDARD PLATE active; positive

C/C=C/C=C/CCCCCCCOC(C)=O
inactive: [1] inactive; negative | Test System: AMES SALMONELLA TYPHIMURIUM, Strain/Indicator: TA98, Metabolic Activation: RAT, LIVER, S-9, Method: STANDARD PLATE inactive; negative | [2] inactive; negative | Test System: AMES SALMONELLA TYPHIMURIUM, Strain/Indicator: TA100, Metabolic Activation: RAT, LIVER, S-9, Method: STANDARD PLATE inactive; negative | Test System: AMES SALMONELLA TYPHIMURIUM, Strain/Indicator: TA102, Metabolic Activation: NONE, Method: STANDARD PLATE inactive; negative | Test System: AMES SALMONELLA TYPHIMURIUM, Strain/Indicator: TA102, Metabolic Activation: RAT, LIVER, S-9, Method: STANDARD PLATE inactive; negative

O=C1CN(CCN2CC(=O)N(CN3CCOCC3)C(=O)C2)CC(=O)N1CN1CCOCC1
inactive: [3] inactive; negative | Test System: AMES SALMONELLA TYPHIMURIUM, Strain/Indicator: TA97, Metabolic Activation: S-9, Method: PREINCUBATION inactive; negative | Test System: AMES SALMONELLA TYPHIMURIUM, Strain/Indicator: TA98, Metabolic Activation: S-9, Method: PREINCUBATION inactive; negative | [5] inactive; negative | Test System: AMES SALMONELLA TYPHIMURIUM, Strain/Indicator: TA100, Metabolic Activation: S-9, Method: PREINCUBATION inactive; negative | Test System: AMES SALMONELLA TYPHIMURIUM, Strain/Indicator: TA102, Metabolic Activation: S-9, Method: PREINCUBATION inactive; negative
active: [4] active; positive | Test System: AMES SALMONELLA TYPHIMURIUM, Strain/Indicator: TA102, Metabolic Activation: NONE, Method: PREINCUBATION active; positive

CNc1ccc2ncc(-c3ccccc3)nc2c1C
inactive: [4] inactive; negative | [5] inactive; negative
active: Test System: AMES SALMONELLA TYPHIMURIUM, Strain/Indicator: TA98, Metabolic Activation: RAT, LIVER, S-9, PCB, Method: PREINCUBATION active; positive | Test System: AMES SALMONELLA TYPHIMURIUM, Strain/Indicator: TA100, Metabolic Activation: RAT, LIVER, S-9, PCB, Method: PREINCUBATION active; positive

CC(=O)Nc1cccc(O)c1
inactive: Test System: AMES SALMONELLA TYPHIMURIUM, Strain/Indicator: TA97, Metabolic Activation: HAMSTER, LIVER, S-9, AROCLOR 1254 (10 OR 30%), Method: PREINCUBATION inactive; negative | [3] inactive; negative | Test System: AMES SALMONELLA TYPHIMURIUM, Strain/Indicator: TA97, Metabolic Activation: RAT, LIVER, S-9, AROCLOR 1254 (10 OR 30%), Method: PREINCUBATION inactive; negative | Test System: AMES SALMONELLA TYPHIMURIUM, Strain/Indicator: TA98, Metabolic Activation: HAMSTER, LIVER, S-9, AROCLOR 1254 (10 OR 30%), Method: PREINCUBATION inactive; negative | [4] inactive; negative | Test System: AMES SALMONELLA TYPHIMURIUM, Strain/Indicator: TA98, Metabolic Activation: RAT, LIVER, S-9, AROCLOR 1254 (10 OR 30%), Method: PREINCUBATION inactive; negative | Test System: AMES SALMONELLA TYPHIMURIUM, Strain/Indicator: TA100, Metabolic Activation: HAMSTER, LIVER, S-9, AROCLOR 1254 (10 OR 30%), Method: PREINCUBATION inactive; negative | [5] inactive; negative | Test System: AMES SALMONELLA TYPHIMURIUM, Strain/Indicator: TA100, Metabolic Activation: RAT, LIVER, S-9, AROCLOR 1254 (10 OR 30%), Method: PREINCUBATION inactive; negative | [6] inactive; negative | [7] inactive; negative | [8] inactive; negative

CCCCCCCCCCCCCC(=O)ON(C(=O)CCCCCCCCCCCCC)c1ccc2c(c1)Cc1ccccc1-2
active: Test System: UDS HUMAN FIBROBLASTS, Strain/Indicator: THY INCORP (NON-S-PHASE), Metabolic Activation: NONE, Method: AUTORADIOGRAPHY active; positive
